Drawing on ChEMBL document CHEMBL3862038, “When Does Chemical Elaboration Induce a Ligand To Change Its Binding Mode?” (J Med Chem, 2017), this text covers Kd for 1 compound.

The assay deals with Heat shock protein HSP90 (Homo sapiens, UniProt P07900+P08238). In words: Inhibition of HSP90 (unknown origin).

For orientation: Kd means a measure of binding affinity in units of concentration. Low values mean a tighter complex, high ones a looser complex. Regarding `COc1cccc(C(=O)NC2CCC3CCC(C2)N3c2ccc(C(=O)NCc3ccccc3)cc2)c1C` (stereo unspecified), the Kd was 800 µM.
